Experimental data as given in paper PMC4180209 (Arteriosclerosis, thrombosis, and vascular biology, 2014).
Read-outs that look alike come from different tables or passages of the source.

Legend:
platelet αIIbβ3 [1] = biological target: T1, platelet αIIbβ3 (Homo sapiens, UniProt P05106+P08514); conditions: cited from earlier work
[2] = test system: human ADP-induced platelet aggregation; assay: ADP-induced platelet aggregation in platelet-rich plasma; format: cell-based; conditions: read-out: IC50 ADP-induced platelet aggregation; 5 µM ADP; citrated platelet-rich plasma; n=8
[3] = Solubility in aqueous buffer; format: physicochemical
murine αIIbβ3 [4] = biological target: T2, murine αIIbβ3 (Mus musculus, UniProt O54890+Q9QUM0); assay: Reactivity with murine platelets / inhibition of murine αIIbβ3; format: cell-based
αIIbβ3 [5] = biological target: T3, αIIbβ3 (Homo sapiens, UniProt P05106+P08514); assay: Adhesion of HEK293 cells expressing αIIbβ3 to fibrinogen; format: cell-based; conditions: for inhibition of binding of cells expressing αIIbβ3 to fibrinogen: HEK293 cells, RUC-2 100 µM, RUC-4 300 µM; for Specificity for αIIbβ3 vs αVβ3: αIIbβ3 cells to fibrinogen vs αVβ3 cells to vitronectin
αVβ3 = αVβ3 (Homo sapiens, UniProt P05106+P06756); assay: Adhesion of HEK293 cells expressing αVβ3 to vitronectin; format: cell-based; conditions: RUC-2 100 µM, RUC-4 300 µM
αIIbβ3 [6] = biological target: T3, αIIbβ3; assay: Binding of ligand-induced binding site mAb AP5 to washed platelets; format: cell-based; conditions: for induction of increased binding of mAb AP5 (LIBS epitope in β3 PSI domain): eptifibatide 10 µM, RUC-2 100 µM, RUC-4 100 µM
platelet αIIbβ3 [7] = biological target: T1, platelet αIIbβ3; assay: Priming platelet αIIbβ3 to bind fibrinogen; format: cell-based
[8] = test system: platelets of mice expressing hαIIb/mβ3; assay: ADP-induced platelet aggregation after dosing of hαIIb/mβ3 mice; format: in vivo
[9] = Plasma concentrations in hαIIb/mβ3 mice; format: in vivo; conditions: exception of an outlier value
hαIIb/mβ3 mice = assay: FeCl3 murine carotid artery thrombosis model; format: in vivo; conditions: for platelet counts: hαIIb/mβ3 mice
[10] = test system: human ADP-induced platelet aggregation; conditions: cited from earlier work
murine αIIbβ3 [11] = biological target: T2, murine αIIbβ3; conditions: 1 µM; cited from earlier work
αIIbβ3 [12] = biological target: T3, αIIbβ3; conditions: cited from earlier work
[13] = test system: ADP (20 µM)-induced platelet aggregation; assay: ADP-induced platelet aggregation after IM administration to M. fascicularis; format: in vivo
human platelets = format: in vivo, mice; conditions: RUC-4 IV 1.5 mg/kg; laser injury, cremasteric arterioles; intravital microscopy
hαIIb/mβ3 platelets = conditions: read-out: IC50 for hαIIb/mβ3 platelets; data not shown, n=3
[14] = cited from earlier work
[15] = Clinical evaluation and platelet counts in M. fascicularis
[16] = RUC-2 0.39 mg/kg IP, 20 µM ADP, hαIIb/mβ3 mice
[17] = RUC-4 1.2 mg/kg IM, 20 µM ADP, hαIIb/mβ3 mice
[18] = IM 1.9 and 3.85 mg/kg, non-human primates

T1 sequence (P08514 32-887 limits assumed): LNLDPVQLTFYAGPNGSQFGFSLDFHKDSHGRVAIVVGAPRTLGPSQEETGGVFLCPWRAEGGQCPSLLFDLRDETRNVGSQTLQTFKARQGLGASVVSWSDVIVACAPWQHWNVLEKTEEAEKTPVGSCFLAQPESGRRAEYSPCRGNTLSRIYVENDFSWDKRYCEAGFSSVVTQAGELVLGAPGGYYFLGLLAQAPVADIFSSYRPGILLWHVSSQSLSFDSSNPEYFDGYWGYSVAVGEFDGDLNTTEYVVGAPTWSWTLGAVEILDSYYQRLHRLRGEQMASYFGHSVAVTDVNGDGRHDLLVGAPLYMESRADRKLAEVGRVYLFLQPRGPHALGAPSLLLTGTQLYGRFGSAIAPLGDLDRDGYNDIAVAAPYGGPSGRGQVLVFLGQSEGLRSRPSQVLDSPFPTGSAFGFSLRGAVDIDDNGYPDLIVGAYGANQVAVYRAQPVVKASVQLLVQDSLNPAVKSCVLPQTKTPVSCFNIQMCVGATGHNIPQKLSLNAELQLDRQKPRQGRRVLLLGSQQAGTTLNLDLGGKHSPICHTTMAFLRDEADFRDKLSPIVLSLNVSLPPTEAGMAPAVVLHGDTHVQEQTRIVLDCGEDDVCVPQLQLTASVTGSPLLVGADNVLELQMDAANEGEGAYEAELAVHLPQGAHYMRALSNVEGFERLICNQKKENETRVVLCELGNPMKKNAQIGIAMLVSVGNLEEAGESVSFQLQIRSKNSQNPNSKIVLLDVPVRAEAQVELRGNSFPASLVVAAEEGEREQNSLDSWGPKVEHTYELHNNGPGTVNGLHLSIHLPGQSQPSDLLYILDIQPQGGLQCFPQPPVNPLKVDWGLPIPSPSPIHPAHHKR
T1 sequence (P08514 891-1039 partner limits assumed): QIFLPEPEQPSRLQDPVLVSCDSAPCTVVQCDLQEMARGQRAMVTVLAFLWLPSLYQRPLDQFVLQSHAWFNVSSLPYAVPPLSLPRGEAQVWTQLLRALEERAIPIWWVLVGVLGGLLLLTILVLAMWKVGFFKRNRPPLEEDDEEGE
T1 sequence (P05106 27-788): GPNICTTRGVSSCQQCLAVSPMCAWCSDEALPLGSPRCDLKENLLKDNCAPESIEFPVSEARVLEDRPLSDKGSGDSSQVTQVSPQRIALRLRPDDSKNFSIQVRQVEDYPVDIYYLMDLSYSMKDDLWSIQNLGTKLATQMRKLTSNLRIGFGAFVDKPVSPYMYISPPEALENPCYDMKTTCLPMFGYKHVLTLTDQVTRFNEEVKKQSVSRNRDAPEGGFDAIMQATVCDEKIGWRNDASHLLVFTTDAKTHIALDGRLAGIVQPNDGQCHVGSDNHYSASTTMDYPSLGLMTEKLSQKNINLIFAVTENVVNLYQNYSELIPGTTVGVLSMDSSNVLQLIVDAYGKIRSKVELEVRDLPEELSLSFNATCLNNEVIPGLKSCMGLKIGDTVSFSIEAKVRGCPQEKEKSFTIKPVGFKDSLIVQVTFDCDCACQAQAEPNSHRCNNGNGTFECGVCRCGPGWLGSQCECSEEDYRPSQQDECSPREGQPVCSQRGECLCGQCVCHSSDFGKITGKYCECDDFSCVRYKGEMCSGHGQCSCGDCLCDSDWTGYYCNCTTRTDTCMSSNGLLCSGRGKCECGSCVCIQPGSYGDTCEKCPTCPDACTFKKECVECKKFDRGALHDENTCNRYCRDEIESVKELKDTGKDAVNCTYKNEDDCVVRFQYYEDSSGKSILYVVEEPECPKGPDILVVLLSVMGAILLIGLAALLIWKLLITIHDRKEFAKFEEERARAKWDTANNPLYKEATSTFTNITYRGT
T3 sequence (P08514 32-887 limits assumed): as the sequence (P08514 32-887 limits assumed) above
T3 sequence (P08514 891-1039 partner limits assumed): as the sequence (P08514 891-1039 partner limits assumed) above
T3 sequence (P05106 27-788): as the sequence (P05106 27-788) above
T2 sequence (Q9QUM0 32-1033): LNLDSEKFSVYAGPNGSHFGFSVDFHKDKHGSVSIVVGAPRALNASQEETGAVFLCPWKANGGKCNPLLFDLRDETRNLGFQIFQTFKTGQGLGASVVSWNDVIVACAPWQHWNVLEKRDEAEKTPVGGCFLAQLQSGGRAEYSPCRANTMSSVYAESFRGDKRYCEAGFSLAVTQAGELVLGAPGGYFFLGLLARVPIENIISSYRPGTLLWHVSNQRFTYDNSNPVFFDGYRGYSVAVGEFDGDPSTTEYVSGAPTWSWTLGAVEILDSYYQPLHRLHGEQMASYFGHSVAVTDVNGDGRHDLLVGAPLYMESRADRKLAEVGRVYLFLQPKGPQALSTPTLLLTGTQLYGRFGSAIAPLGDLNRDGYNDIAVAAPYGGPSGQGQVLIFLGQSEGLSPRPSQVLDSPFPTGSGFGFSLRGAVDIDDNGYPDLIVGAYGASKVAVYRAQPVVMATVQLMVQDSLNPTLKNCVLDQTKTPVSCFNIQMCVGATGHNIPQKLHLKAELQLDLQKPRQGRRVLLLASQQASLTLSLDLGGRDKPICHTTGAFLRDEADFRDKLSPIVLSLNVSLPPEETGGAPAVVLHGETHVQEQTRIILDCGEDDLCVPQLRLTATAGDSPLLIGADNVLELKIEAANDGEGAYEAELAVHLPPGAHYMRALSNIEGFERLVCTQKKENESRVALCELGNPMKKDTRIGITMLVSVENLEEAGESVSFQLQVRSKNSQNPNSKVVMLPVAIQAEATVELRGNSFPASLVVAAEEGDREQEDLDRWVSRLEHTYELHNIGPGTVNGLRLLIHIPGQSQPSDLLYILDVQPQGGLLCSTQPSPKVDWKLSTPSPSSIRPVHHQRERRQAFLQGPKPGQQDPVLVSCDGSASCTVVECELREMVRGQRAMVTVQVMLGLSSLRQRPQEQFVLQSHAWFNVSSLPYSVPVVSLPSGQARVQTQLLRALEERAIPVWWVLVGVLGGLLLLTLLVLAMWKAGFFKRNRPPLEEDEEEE
T2 sequence (O54890 26-787): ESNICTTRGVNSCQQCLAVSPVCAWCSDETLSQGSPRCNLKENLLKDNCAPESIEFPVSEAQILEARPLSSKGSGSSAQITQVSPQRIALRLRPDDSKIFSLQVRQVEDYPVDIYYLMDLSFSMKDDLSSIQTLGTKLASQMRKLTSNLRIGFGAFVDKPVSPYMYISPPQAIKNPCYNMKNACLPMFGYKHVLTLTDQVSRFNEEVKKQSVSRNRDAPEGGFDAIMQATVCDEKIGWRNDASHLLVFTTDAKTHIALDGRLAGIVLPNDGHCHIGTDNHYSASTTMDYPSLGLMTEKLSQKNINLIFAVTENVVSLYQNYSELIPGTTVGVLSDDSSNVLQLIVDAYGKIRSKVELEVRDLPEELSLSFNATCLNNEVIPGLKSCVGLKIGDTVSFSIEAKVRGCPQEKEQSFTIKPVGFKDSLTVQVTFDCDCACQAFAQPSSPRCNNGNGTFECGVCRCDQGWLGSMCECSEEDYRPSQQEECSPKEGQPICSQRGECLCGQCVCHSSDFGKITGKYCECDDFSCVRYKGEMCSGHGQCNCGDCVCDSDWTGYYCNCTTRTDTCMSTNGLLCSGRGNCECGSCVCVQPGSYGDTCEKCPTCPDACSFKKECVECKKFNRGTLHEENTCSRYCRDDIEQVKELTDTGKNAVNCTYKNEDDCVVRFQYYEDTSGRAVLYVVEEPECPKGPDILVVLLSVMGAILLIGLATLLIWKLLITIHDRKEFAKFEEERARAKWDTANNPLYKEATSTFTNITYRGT
αVβ3, sequence (P06756 31-889 limits assumed): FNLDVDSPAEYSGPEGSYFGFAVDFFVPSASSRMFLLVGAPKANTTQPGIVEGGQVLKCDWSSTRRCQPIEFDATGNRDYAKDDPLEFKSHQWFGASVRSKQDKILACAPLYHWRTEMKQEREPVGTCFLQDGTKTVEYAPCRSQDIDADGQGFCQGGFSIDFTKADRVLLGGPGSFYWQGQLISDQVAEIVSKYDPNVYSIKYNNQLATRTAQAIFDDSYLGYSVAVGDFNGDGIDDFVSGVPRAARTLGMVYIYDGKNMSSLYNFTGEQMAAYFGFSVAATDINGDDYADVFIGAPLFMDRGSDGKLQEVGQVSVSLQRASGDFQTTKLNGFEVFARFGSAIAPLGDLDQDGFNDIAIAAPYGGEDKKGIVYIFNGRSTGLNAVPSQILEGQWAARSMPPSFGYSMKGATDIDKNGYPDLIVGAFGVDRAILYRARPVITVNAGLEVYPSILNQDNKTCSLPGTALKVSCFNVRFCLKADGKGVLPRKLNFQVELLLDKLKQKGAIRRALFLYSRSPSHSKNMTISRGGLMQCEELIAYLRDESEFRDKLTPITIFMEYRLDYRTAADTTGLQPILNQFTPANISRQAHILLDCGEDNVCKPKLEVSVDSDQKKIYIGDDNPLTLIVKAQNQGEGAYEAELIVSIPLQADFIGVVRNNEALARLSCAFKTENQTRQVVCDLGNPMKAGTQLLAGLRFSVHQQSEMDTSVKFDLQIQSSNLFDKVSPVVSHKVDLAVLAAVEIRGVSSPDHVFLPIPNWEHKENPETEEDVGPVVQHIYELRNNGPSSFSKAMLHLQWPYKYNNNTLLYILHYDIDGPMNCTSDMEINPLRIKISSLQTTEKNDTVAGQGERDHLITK
αVβ3, sequence (P06756 891-1048 partner limits assumed): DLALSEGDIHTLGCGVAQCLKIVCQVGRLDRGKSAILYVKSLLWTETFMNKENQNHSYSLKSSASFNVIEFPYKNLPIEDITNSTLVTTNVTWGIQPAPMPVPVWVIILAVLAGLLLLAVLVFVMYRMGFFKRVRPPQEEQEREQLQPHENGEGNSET
αVβ3, sequence (P05106 27-788): as the sequence (P05106 27-788) above

In the case of `CCCCS(=O)(=O)N[C@@H](Cc1ccc(OCCCCC2CCNCC2)cc1)C(=O)O` [tirofiban, reference compound], the “priming of the receptor to bind the ligand fibrinogen” value (shortened to “priming of the receptor”) (platelet αIIbβ3 [1]) is given as “unlike eptifibatide and tirofiban, neither RUC-1 nor RUC-2 primed the receptor”.

For `NCC(=O)Nc1cccc(-c2nn3c(=O)cc(N4CCNCC4)nc3s2)c1` [RUC-2], the IC50 [2] was 95 ± 20 nM, the “Solubility in aqueous buffer at pH 7.4” value [3] was 0.068–0.092 mg/ml and the “Reactivity with murine platelets” value (murine αIIbβ3 [4]) was “No”. For the same compound, the “inhibition of binding of cells expressing αIIbβ3 to fibrinogen” value (αIIbβ3 [5]) was “inhibiting the binding of cells expressing αIIbβ3 to fibrinogen”, the “Specificity for αIIbβ3 vs αVβ3” value (αIIbβ3 [5]) was “Yes” and the “inhibition of binding of cells expressing αVβ3 to vitronectin” value (αVβ3) was “inability to inhibit”. For the same compound, the “Ability to Induce conformational changes in αIIbβ3 identifiable by LIBS mAb” value (αIIbβ3 [6]) was “No”, the “induction of increased binding of mAb AP5 (LIBS epitope in β3 PSI domain)” value (αIIbβ3 [6]) was “did not induce increased binding” and the “Ability to prime αIIbβ3 to bind fibrinogen” value (platelet αIIbβ3 [7]) was “No”. The “time at which return of the aggregation response begins” value [8, 16] was 45 min, the “time to complete inhibition of platelet aggregation” value [8, 16] was no more than 15 min and the “time to complete inhibition of platelet aggregation” value ([8]; RUC-2 3.85 mg/kg IP, 20 µM ADP, hαIIb/mβ3 mice) was no more than 15 min. The “platelet aggregation at the 45 minute time point” value ([8]; RUC-2 3.85 mg/kg IP) was “complete inhibition of platelet aggregation in all animals”, the “time to maximum plasma concentration” value ([9]; RUC-2 IP) was 15 min and the “mice protected from vaso-occlusion” value (hαIIb/mβ3 mice; RUC-2 3.85 mg/kg IP, 20% FeCl3 for 3 minutes, 20 minutes after dosing) was 8/8. The platelet counts (hαIIb/mβ3 mice; RUC-2 3.85 mg/kg IP) was 677±132 × 10^3 platelets per µl, the IC50 [10] was roughly 90 nM and the “fold more potent than RUC-1” value [10] was ~ 100 fold. The “inhibition of murine αIIbβ3” value (murine αIIbβ3 [11]) was “does not inhibit”, the “conformational changes in β3 detectable by a conformation-specific monoclonal antibody or by electron microscopy” value (αIIbβ3 [12]) was “nor did they induce conformational changes in β3” and the “priming of the receptor” value (platelet αIIbβ3 [1]) was “neither RUC-1 nor RUC-2 primed the receptor”.

With `NCC(=O)Nc1cncc(-c2nn3c(=O)cc(N4CCNCC4)nc3s2)c1` [RUC-4] the IC50 [2] was 57 ± 10 nM, the “fold more soluble than RUC-2 in aqueous buffer at neutral pH” value ([3]; neutral pH) was “more than 500 fold” and the “Solubility in aqueous buffer at pH 7.4” value [3] was 60–80 mg/ml. The “Reactivity with murine platelets” value (murine αIIbβ3 [4]) was “No”, the “inhibition of murine αIIbβ3” value (murine αIIbβ3 [4]; data not shown) was “shares this property” and the “inhibition of binding of cells expressing αIIbβ3 to fibrinogen” value (αIIbβ3 [5]) was “inhibiting the binding of cells expressing αIIbβ3 to fibrinogen”. The “Specificity for αIIbβ3 vs αVβ3” value (αIIbβ3 [5]) was “Yes”, the “inhibition of binding of cells expressing αVβ3 to vitronectin” value (αVβ3) was “inability to inhibit” and the “Ability to Induce conformational changes in αIIbβ3 identifiable by LIBS mAb” value (αIIbβ3 [6]) was “No”. For the same compound, the “induction of increased binding of mAb AP5 (LIBS epitope in β3 PSI domain)” value (αIIbβ3 [6]) was “did not induce increased binding”, the “Ability to prime αIIbβ3 to bind fibrinogen” value (platelet αIIbβ3 [7]) was “No” and the “time of complete inhibition of platelet aggregation” value [8, 17] was 5 min. The “time of partial return of aggregation” value [8, 17] was 4 h, the “platelet aggregation at the 45 minute time point” value ([8]; RUC-4 1.2 mg/kg IM) was “complete inhibition of platelet aggregation in all animals” and the “time to maximum plasma concentration” value ([9]; RUC-4 IM) was 5 min. The “time at which return toward normal aggregation is evident” value ([13]; 1.0 mg/kg IM, 20 µM ADP) was 2 h, the “inhibition of aggregation at 15 minutes” value ([13]; 1.0 mg/kg IM, 15 minutes) was “partial” and the “time at which aggregation response began to return to normal” value ([13]; 1.93 mg/kg IM, 20 µM ADP) was no more than 4.5 h. For the same compound, the “time to complete inhibition of aggregation” value ([13]; 1.93 mg/kg IM, 20 µM ADP) was no more than 15 min, the “time to complete inhibition of aggregation” value ([13]; 3.86 mg/kg IM, 20 µM ADP) was no more than 15 min and the “dose-dependent return of platelet aggregation after” value [13, 18] was 4.5 to 24 h. The “time to complete inhibition of platelet aggregation” value [13, 18] was no more than 15 min, the “mice developing occlusion during the experiment” value (hαIIb/mβ3 mice; RUC-4 1.2 mg/kg IM, 20% FeCl3 for 3 minutes, 20 minutes after dosing) was 2/11 and the platelet counts (hαIIb/mβ3 mice; RUC-4 1.2 mg/kg IM) was 674±176 × 10^3 platelets per µl. The “decrease in thrombus formation” value (human platelets) was greater than 80%, the IC50 (hαIIb/mβ3 platelets) was roughly 10 nM and the “fold more soluble than RUC-2” value [14] was “more than 500 fold”. The bleeding observation ([15]; 3.85 mg/kg IM) was “Transient gum bleeding”, the “clinical evaluation (tolerability)” value ([15]; IM 3.86, 1.93 and 1.0 mg/kg) was “well tolerated” and the “platelet counts throughout the 24 hour period” value ([15]; IM 3.86, 1.93 and 1.0 mg/kg, 24 hour) was “remained stable”.

For `CCc1nn2c(=O)cc(N3CCNCC3)nc2s1` [RUC-1], the IC50 [10] is given as 13000 nM, the “conformational changes in β3 detectable by a conformation-specific monoclonal antibody or by electron microscopy” value (αIIbβ3 [12]) is given as “nor did they induce conformational changes in β3” and the “priming of the receptor” value (platelet αIIbβ3 [1]) is given as “neither RUC-1 nor RUC-2 primed the receptor”.

In the case of eptifibatide [reference compound], the “fold higher affinity for αIIbβ3 than RUC-4 as judged by IC50 for platelet aggregation” value [10] is given as “more than 4 fold” and the “priming of the receptor” value (platelet αIIbβ3 [1]) is given as “unlike eptifibatide and tirofiban, neither RUC-1 nor RUC-2 primed the receptor”.
